Results as given in patent publication EP1588705A1, “Use of coumarin derivatives” (INTE:LIGAND Software-Entwicklungs und Consulting GmbH, priority 2004, dated 2005).
Counter-ions that a name gives are not always drawn.

Tests used:
mice [1] = experiment: T-maze continuous alternation; format: in vivo
Experimental: (§1) […] female, 3-month mice, weighing 20 - 27 g, were used in the present study. The animals were housed in groups of six to ten in cages (40 (L) x 25 (W) x 15 (H) cm) placed in a room at a constant temperature (22±1 °C), 12-light/ 12-dark cycle (07:00-19:00 h), with food and water ad libitum. Experiments were conducted between 09:00 and 16:00h.
(§2) Mice were anaesthetized with Pentobarbital sodium (60 mg/kg, i.p.) and placed in a stereotaxic frame. A guide cannula (gauge 25, o.d. 0.52 mm, i.d, 0.26 mm and 7 mm long) was stereotaxically implanted through a hole on the skull into the brain area 0.5 mm higher than the third cerebral ventricle (-0.1 mm posterior, 0.8 mm lateral to bregma, -2.2 mm ventral to the dura) (Franklin and Paxinos, 1997). Guide cannula was secured to the skull using two small screws and dental cement. The microinjector (Hamilton gauge 32, o.d. 0.24 mm and i.d. 0.11 mm, 7.5 mm long) protruded 0.5 mm from the tip of the guide cannula to reach the cerebral ventricle. Mice recovered for 5 days before any experimentation was done.
Scopolamine hydrobromide (Sigma, St. Louis, MO, U.S.A.) was dissolved in saline. SCT (Sigma-Aldrich Chemie GmbH, Steinheim, Germany) was dissolved in vehicle solution (DMSO:sterile water, 3:7). The animals were randomly divided into experimental groups and administered a cerebral ventricle injection of saline, scopolamine, SCT or scopolamine and SCT in a volume of 1 or 2 µl during 1 min. The injector was left in place an extra 1 min for drug diffusion after injection. These substances and vehicle were injected 15 min prior to the test.
Animals were randomly divided into […] experimental groups (6 mice per group) as follows: vehicle, scopolamine hybrobromide 20 µg (50 nmol) in 1µl ICV, SCT 2 µg (10 nmol) in 2µl ICV and scopolamine hybrobromide 20 µg plus SCT 2 µg ICV. All substances were injected 15 min before the test (T-maze and open field) or before the training trial T1 (object recognition test) through the 7.5 mm long injector connected with i.d. 0.28 mm polyethylene tubing to 5 µl Hamilton syringe. […]

acetylcholinesterase [2] = target: T1, acetylcholinesterase (Electrophorus electricus, UniProt O42275); experiment: bioautographic TLC test for AChE inhibitory activity (Ellman's method); format: biochemical; parameters: purchased Sigma-Aldrich Chemie GmbH, Steinheim, Germany; settings: spots of methanolic extract of S. carniolica rhizomes, Rf 0.6 (SCT) and 0.4 (SCN); false positives excluded
Experimental: The AChE inhibitory activity of the methanolic crude extract was qualitatively determined in a TLC assay using Ellman's method (Ellman, et al, 1961). Additionally a test to exclude false positive results was conducted described by Rhee et al, 2003. The used silica gel TLC plates 60F254 (0.2 mm thickness) were purchased from Merck (Darmstadt, Germany). […] Enzyme inhibitory activities were detected by spraying the substrate, dye and enzyme described by Rhee and coauthors (Rhee et al, 2001).
(§3) In both test systems, the enzyme (acetylcholinesterase, Sigma-Aldrich Chemie GmbH, Steinheim, Germany) hydrolyzes the substrate acetylthiocholine (acetylthiocholiniodid, Sigma-Aldrich Chemie GmbH, Steinheim, Germany) to produce thiocholine. This reacts with Ellman's reagent (5,5'-dithiobis-(2-nitrobenzoic acid), Sigma-Aldrich Chemie GmbH, Steinheim, Germany) resulting in 5-thio-2-nitrobenzoate and the yellow colored 2-nitrobenzoate-5-mercaptothiocholine. This latter was visually detected in the TLC test.

mice [3] = experiment: object recognition task; format: in vivo
Experimental: as §1, §2
Scopolamine hydrobromide (Sigma, St. Louis, MO, U.S.A.) was dissolved in saline. […]
Exploration was defined as follows: directing the nose toward the object at a distance of less than 0.5 cm and/or touching the object with the nose. […] The times spent by mice in exploring each object during T1 and T2 were recorded manually by using a stopwatch. […]

[4] = system: extracellular concentration of ACh in the nucleus accumbens; experiment: in vivo extracellular ACh concentration, push-pull technique, i.c.v. injection; parameters: species or system Sprague-Dawley rats; settings: 2 µmol i.c.v.; for extracellular concentration of ACh (relative value, means ± SEM): mean before drug = 1.0
Excerpt: Surgery and push-pull technique: Sprague-Dawley rats (250-350 g) were anaesthetized with urethane 1,2 g/kg, i.p. The head was fixed in a stereotaxic frame and a push-pull cannula (outer tubing: o.d. 0.75 mm, i.d. 0.41 mm; inner tubing: o.d. 0.26 mm, i.d. 0.13 mm) was mounted on a microdrive. This was stereotaxically inserted through a hole in the skull into the nucleus accumbens (coordinates, mm from bregma: AP, +1.2; L, +2.5; V, -7.8; Paxinos & Watson, 1998). A second hole was drilled into the skull for the i.c.v. application of drugs (coordinates, mm from bregma: AP, -2,8; L, +1,5) The nucleus accumbens was superfused at 20µL/min with artificial cerebrospinal fluid (aCSF), pH 7.2. The CSF consisted of: NaCl,140; KCI, 3; CaCl2, 1.2; MgCl2 1; Na2HPO4, 1; NaH2PO4, 0.3; glucose 3.0 (mmol I^-1), neostigmine 1.0 (µmol/l^-1). After 1 h of the cannula insertion the samples were collected into tubes kept at -20° C in time periods of 10 min and then stored at -80° C until acetylcholine (Ach) was determined.
Using a motorized microsyringe connected to a stereotaxic microdrive, the tip was introduced with an angle of 60° through the drug application-hole into the ipsilateral ventricle (coordinates mm from bregma: AP, -0,9; L, +1,5; V, -3,8) via a cannula (o.d., 0,65; i.d., 0,38). The drug solutions were injected at 2µL/min. The control rats were injected with the vehicle (DMSO: EtOH 1:1).
Histology: At the end of the experiment the rat was killed with an overdose of urethane, the brain was removed and stored in buffered formaldehyde solution (7%). Serial coronal sections were cut at 50 µm intervals. Localisation of the push-pull cannula and i.c.v. microinjection was verified. Experiments with unsatisfactory localisation were discarded.
Determination of acetylcholine: (Ach): ACh content in the samples was determined by HPLC with a cation-exchanging analytical column and a post-column reactor followed by electrochemical detection (Damsma et al, 1997; Prast et al; 1998). The system consisted of a HPLC-pump (JASCO PU-1580, Jasco Corporation, Tokyo, Japan), a pulse dampener and an autosampler (AS-4000, Hitachi Ltd., Tokyo, Japan) with a 100-µL sample loop. […] The peroxide was electrochemically detected by a UniJet platin electrode (3mm) at +500 mV with an amperometric detector (BAS LC-4, Bioanalytical Systems, West Lafayette, IN, USA). […] ACh was quantified with external standards that were injected at the beginning and the end of the analysis.
Statistical significance of drug effects on the extracellular ACh concentration was calculated by Friedman's analysis of variance, followed by Wilcoxon's signed rank test for paired data (a p<0.08, * p<0.05, ** p<0,001) using the mean concentration rate before the administration of drugs as controls. […]

acetylcholinesterase [5] = target: T1, acetylcholinesterase; experiment: biochemical
Excerpt: as §3
The self absorbance of all ingredients of the assay was corrected by subtracting the absorbance at time zero from the subsequent absorbance values. […] For all three substances the concentration dependence of their AChE inhibitory activity was determined. Percentage of the enzyme inhibition was calculated by comparing the rates for the sample to the blank (containing 1% DMSO) and analyzed with Student's t-test.

mice [6] = experiment: open field locomotor behaviour; format: in vivo; settings: 2 µg ICV, 30 min
Experimental: as §1
as §2, with “done. […]” for “done.”
The open field consisted of a transparent plastic box with white floor (41 x 41 x 41 cm) equipped with an automated activity monitoring system (True Scan, Coulbourn Instruments, Allentown, USA). […] The time spent in box and the overall distance travelled by the mice were monitored for 30 min. […]

T1 sequence (O42275 24-633): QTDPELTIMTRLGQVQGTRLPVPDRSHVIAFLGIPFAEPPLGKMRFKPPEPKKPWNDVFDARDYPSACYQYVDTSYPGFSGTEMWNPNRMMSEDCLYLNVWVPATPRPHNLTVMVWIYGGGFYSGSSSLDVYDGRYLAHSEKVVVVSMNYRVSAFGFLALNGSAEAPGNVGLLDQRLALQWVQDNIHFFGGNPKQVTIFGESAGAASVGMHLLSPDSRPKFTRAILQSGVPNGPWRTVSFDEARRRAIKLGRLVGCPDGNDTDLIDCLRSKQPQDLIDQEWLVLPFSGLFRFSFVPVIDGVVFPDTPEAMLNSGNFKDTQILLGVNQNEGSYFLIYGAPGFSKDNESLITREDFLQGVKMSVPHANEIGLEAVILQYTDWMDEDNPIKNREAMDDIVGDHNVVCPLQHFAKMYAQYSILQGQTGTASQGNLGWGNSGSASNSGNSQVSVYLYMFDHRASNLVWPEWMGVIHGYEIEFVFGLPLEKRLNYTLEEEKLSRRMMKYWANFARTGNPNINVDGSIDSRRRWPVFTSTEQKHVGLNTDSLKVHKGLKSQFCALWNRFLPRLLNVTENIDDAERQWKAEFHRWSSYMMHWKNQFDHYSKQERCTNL

SMILES | alternation rate (mice [1]; 2 µg ICV alone) [%] | effect on scopolamine-induced decrease in alternation rate (mice [1]; SCT 2 µg ICV plus scopolamine 20 µg ICV) | AChE inhibitory activity of fluorescent TLC spot (acetylcholinesterase [2]) | discrimination index, effect on scopolamine-induced impairment of object recognition (mice [3]; SCT 2 µg ICV plus scopolamine 20 µg ICV, 15 min before T1, mice) | extracellular concentration of ACh (relative value, means ± SEM) ([4]; rat nucleus accumbens) | change of inhibitory activity up to 90 min (acetylcholinesterase [5]; higher concentrations (250, 500, 1000 µM)) | duration of inhibitory activity (acetylcholinesterase [5]; lower concentrations (62.5, 125 µM)) | time until level of inhibitory activity is reached (acetylcholinesterase [5]; lower concentrations (62.5, 125 µM), after adding enzyme to substrate) [min] | move distance, reduction compared to vehicle-treated controls (mice [6]) | move time in the open field (mice [6]; vs vehicle-treated controls) | ACh concentration after decline, of basal value ([4]; following the initial peak) | initial peak concentration of ACh, of basal value ([4]; rat nucleus accumbens) | inhibition of AChE, statistical significance (acetylcholinesterase [5]; 1000, 500 and 250 µM) | inhibition at 1000 µM (acetylcholinesterase [5]; read-out: AChE inhibitory activity) [%] | time until inhibitory activities reach their maximum extent (acetylcholinesterase [5]; three highest concentrations) [min] | change of inhibitory activity towards endpoint of measurement at 90 min (acetylcholinesterase [5]; three highest concentrations, after maximum in first 15 min) | effect on alternation rate (mice [1]; 20 µg ICV) | effect on learning in object recognition (discrimination novel vs familiar object in T2) (mice [3]; 20 µg ICV, mice)
COc1cc2ccc(=O)oc2cc1O [SCT, scopoletin] | 63 ± 5 | abolished | positive | significantly increased | 1,74 ± 0,24 | slight, almost insignificant increase | at least 90 min | ≤ 15 | about 20% | only slightly decreased |  |  |  |  |  |  |  | 
COc1cc2ccc(=O)oc2cc1O[C@@H]1O[C@H](CO)[C@@H](O)[C@H](O)[C@H]1O [SCN, scopolin] |  |  | positive |  | 3.18 ± 0.78 |  |  |  |  |  | about 200% | about 400% | significant | 30.1 | ≤ 15 | slight decrease |  | 
CN1[C@@H]2C[C@@H](OC(=O)[C@H](CO)c3ccccc3)C[C@H]1[C@@H]1O[C@@H]12 [Scopolamine, Scopolamine hydrobromide, reference compound] |  |  |  |  |  |  |  |  |  |  |  |  |  |  |  |  | pronounced decrease | drastic impairment of learning
